Test results published in article PMC10408569, “Recruitment of hexahydroquinoline as anticancer scaffold targeting inhibition of wild and mutants EGFR (EGFR^WT, EGFR^T790M, and EGFR^L858R)” (Journal of Enzyme Inhibition and Medicinal Chemistry, 2023).

What was measured:
NCI-H522 = assay: NCI-60 anticancer screening (SRB); assay type: cell-based; details: Homo sapiens; NCI-H522, NSC lung cancer; one dose 10 μM; read-out: Growth Inhibition Percentage (GI %)
NCI-H226 = assay: NCI-60 anticancer screening (SRB); assay type: cell-based; details: Homo sapiens; NCI-H226, NSC lung cancer; one dose 10 μM; read-out: Growth Inhibition Percentage (GI %)
SN 12C = assay: NCI-60 anticancer screening (SRB); assay type: cell-based; details: Homo sapiens, SN12C; SN 12C, renal cancer; one dose 10 μM; read-out: Growth Inhibition Percentage (GI %)
SNB-75 = assay: NCI-60 anticancer screening (SRB); assay type: cell-based; details: Homo sapiens; SNB-75, CNS cancer; one dose 10 μM; read-out: Growth Inhibition Percentage (GI %)
M14 = assay: NCI-60 anticancer screening (SRB); assay type: cell-based; details: Homo sapiens; M14, melanoma; one dose 10 μM; read-out: Growth Inhibition Percentage (GI %)
HOP-62 = assay: NCI-60 anticancer screening (SRB); assay type: cell-based; details: Homo sapiens; HOP-62, NSC lung cancer; one dose 10 μM; read-out: Growth Inhibition Percentage (GI %)
SNB-19 = assay: NCI-60 anticancer screening (SRB); assay type: cell-based; details: Homo sapiens; SNB-19, CNS cancer; one dose 10 μM; read-out: Growth Inhibition Percentage (GI %)
RPMI-8226 = assay: NCI-60 anticancer screening (SRB); assay type: cell-based; details: Homo sapiens; RPMI-8226, leukemia; one dose 10 μM; read-out: Growth Inhibition Percentage (GI %)
EKVX = assay: NCI-60 anticancer screening (SRB); assay type: cell-based; details: Homo sapiens, NSC lung cancer, one dose 10 μM, read-out: Growth Inhibition Percentage (GI %)
ACHN = assay: NCI-60 anticancer screening (SRB); assay type: cell-based; details: Homo sapiens, renal cancer, one dose 10 μM, read-out: Growth Inhibition Percentage (GI %)
SF-539 = assay: NCI-60 anticancer screening (SRB); assay type: cell-based; details: Homo sapiens; SF-539, CNS cancer; one dose 10 μM; read-out: Growth Inhibition Percentage (GI %)
UACC-257 = assay: NCI-60 anticancer screening (SRB); assay type: cell-based; details: Homo sapiens; UACC-257, melanoma; one dose 10 μM; read-out: Growth Inhibition Percentage (GI %)
CAKI-1 = assay: NCI-60 anticancer screening (SRB); assay type: cell-based; details: Homo sapiens; CAKI-1, renal cancer; one dose 10 μM; read-out: Growth Inhibition Percentage (GI %)
SK-MEL-5 = assay: NCI-60 anticancer screening (SRB); assay type: cell-based; details: Homo sapiens; SK-MEL-5, melanoma; one dose 10 μM; read-out: Growth Inhibition Percentage (GI %)
U251 = assay: NCI-60 anticancer screening (SRB); assay type: cell-based; details: Homo sapiens, U-251; U251, CNS cancer; one dose 10 μM; read-out: Growth Inhibition Percentage (GI %)
T-47D = assay: NCI-60 anticancer screening (SRB); assay type: cell-based; details: Homo sapiens, T47D, breast cancer, one dose 10 μM, read-out: Growth Inhibition Percentage (GI %)
SK-MEL-2 = assay: NCI-60 anticancer screening (SRB); assay type: cell-based; details: Homo sapiens; SK-MEL-2, melanoma; one dose 10 μM; read-out: Growth Inhibition Percentage (GI %)
HT29 = assay: NCI-60 anticancer screening (SRB); assay type: cell-based; details: Homo sapiens, HT-29; HT29, colon cancer; one dose 10 μM; read-out: Growth Inhibition Percentage (GI %)
OVCAR-5 = assay: NCI-60 anticancer screening (SRB); assay type: cell-based; details: Homo sapiens; OVCAR-5, ovarian cancer; one dose 10 μM; read-out: Growth Inhibition Percentage (GI %)
A498 = assay: NCI-60 anticancer screening (SRB); assay type: cell-based; details: Homo sapiens; A498, renal cancer; one dose 10 μM; read-out: Growth Inhibition Percentage (GI %)
NCI-H460 = assay: NCI-60 anticancer screening (SRB); assay type: cell-based; details: Homo sapiens; NCI-H460, NSC lung cancer; one dose 10 μM; read-out: Growth Inhibition Percentage (GI %)
MALME-3M = assay: NCI-60 anticancer screening (SRB); assay type: cell-based; details: Homo sapiens, melanoma, one dose 10 μM, read-out: Growth Inhibition Percentage (GI %)
SR = assay: NCI-60 anticancer screening (SRB); assay type: cell-based; details: Homo sapiens, leukemia, one dose 10 μM, read-out: Growth Inhibition Percentage (GI %)
DU-145 = assay: NCI-60 anticancer screening (SRB); assay type: cell-based; details: Homo sapiens; DU-145, prostate cancer; one dose 10 μM; read-out: Growth Inhibition Percentage (GI %)
SF-268 = assay: NCI-60 anticancer screening (SRB); assay type: cell-based; details: Homo sapiens; SF-268, CNS cancer; one dose 10 μM; read-out: Growth Inhibition Percentage (GI %)
786-0 = assay: NCI-60 anticancer screening (SRB); assay type: cell-based; details: Homo sapiens; 786-0, renal cancer; one dose 10 μM; read-out: Growth Inhibition Percentage (GI %)
IGROV1 = assay: NCI-60 anticancer screening (SRB); assay type: cell-based; details: Homo sapiens, IGROV-1; IGROV1, ovarian cancer; one dose 10 μM; read-out: Growth Inhibition Percentage (GI %)
HCT-116 = assay: NCI-60 anticancer screening (SRB); assay type: cell-based; details: Homo sapiens; HCT-116, colon cancer; one dose 10 μM; read-out: Growth Inhibition Percentage (GI %)
SF-295 = assay: NCI-60 anticancer screening (SRB); assay type: cell-based; details: Homo sapiens; SF-295, CNS cancer; one dose 10 μM; read-out: Growth Inhibition Percentage (GI %)
HOP-92 = assay: NCI-60 anticancer screening (SRB); assay type: cell-based; details: Homo sapiens; HOP-92, NSC lung cancer; one dose 10 μM; read-out: Growth Inhibition Percentage (GI %)
LOX IMVI = assay: NCI-60 anticancer screening (SRB); assay type: cell-based; details: Homo sapiens, melanoma, one dose 10 μM, read-out: Growth Inhibition Percentage (GI %)
K-562 = assay: NCI-60 anticancer screening (SRB); assay type: cell-based; details: Homo sapiens, K562; K-562, leukemia; one dose 10 μM; read-out: Growth Inhibition Percentage (GI %)

Row | Structure (SMILES) | inhibition at 10 µM (NCI-H522) [%] | inhibition at 10 µM (NCI-H226) [%] | inhibition at 10 µM (SN 12C) [%] | inhibition at 10 µM (SNB-75) [%] | inhibition at 10 µM (M14) [%] | inhibition at 10 µM (HOP-62) [%] | inhibition at 10 µM (SNB-19) [%] | inhibition at 10 µM (RPMI-8226) [%] | inhibition at 10 µM (EKVX) [%] | inhibition at 10 µM (ACHN) [%] | inhibition at 10 µM (SF-539) [%] | inhibition at 10 µM (UACC-257) [%] | inhibition at 10 µM (CAKI-1) [%] | inhibition at 10 µM (SK-MEL-5) [%] | inhibition at 10 µM (U251) [%] | inhibition at 10 µM (T-47D) [%] | inhibition at 10 µM (SK-MEL-2) [%] | inhibition at 10 µM (HT29) [%] | inhibition at 10 µM (OVCAR-5) [%] | inhibition at 10 µM (A498) [%] | further results
1 | CCOC(=O)C1=C(N)N(c2ccc(Cl)cc2)C2=C(C(=O)CC(C)(C)C2)C1c1cccnc1 (racemic) [12f, (±)-Ethyl 2-amino-1–(4-chlorophenyl)-7,7-dimethyl-5-oxo-4-(pyridin-3-yl)-1,4,5,6,7,8-hexahydroquinoline-3-carboxylate] | < 10 | < 10 | < 10 | 21 | < 10 | < 10 | < 10 | 12 | < 10 | < 10 | 12 | < 10 | < 10 | < 10 | < 10 | 25 | < 10 | < 10 | < 10 | < 10 | inhibition at 10 µM (NCI-H460): < 10%; inhibition at 10 µM (MALME-3M): < 10%; inhibition at 10 µM (SR): < 10%; inhibition at 10 µM (DU-145): < 10%; melting point: 261 to 263 °C; inhibition at 10 µM (SF-268): < 10%; inhibition at 10 µM (786-0): < 10%; inhibition at 10 µM (IGROV1): < 10%; inhibition at 10 µM (HCT-116): < 10%; inhibition at 10 µM (SF-295): < 10%; inhibition at 10 µM (HOP-92): < 10%; inhibition at 10 µM (LOX IMVI): 12%; inhibition at 10 µM (K-562): < 10%
2 | CCOC(=O)C1=C(N)N(c2ccc(Cl)cc2)C2=C(C(=O)CC(C)(C)C2)C1c1ccccn1 (racemic) [12c, (±)-Ethyl 2-amino-1–(4-chlorophenyl)-7,7-dimethyl-5-oxo-4-(pyridine-2-yl)-1,4,5,6,7,8-hexahydroquinoline-3-carboxylate] | 11 | < 10 | < 10 | < 10 | < 10 | < 10 | < 10 | < 10 | < 10 | < 10 | < 10 | < 10 | 11 | 13 | < 10 | < 10 | < 10 | 22 | < 10 | < 10 | inhibition at 10 µM (NCI-H460): < 10%; inhibition at 10 µM (MALME-3M): < 10%; inhibition at 10 µM (SR): < 10%; inhibition at 10 µM (DU-145): < 10%; melting point: 256 to 258 °C; inhibition at 10 µM (SF-268): < 10%; inhibition at 10 µM (786-0): < 10%; inhibition at 10 µM (IGROV1): < 10%; inhibition at 10 µM (HCT-116): 13%; inhibition at 10 µM (SF-295): < 10%; inhibition at 10 µM (HOP-92): < 10%; inhibition at 10 µM (LOX IMVI): < 10%; inhibition at 10 µM (K-562): < 10%
3 | CCOC(=O)C1=C(N)N(c2ccc(C)cc2)C2=C(C(=O)CC(C)(C)C2)C1c1ccc(OC)cc1 (racemic) [8g, (±)-Ethyl 2-amino-4–(4-methoxyphenyl)-7,7-dimethyl-1–(4-methylphenyl)-5-oxo-1,4,5,6,7,8-hexahydroquinoline-3-carboxylate] | < 10 | < 10 | < 10 | 13 | < 10 | < 10 | < 10 | < 10 | < 10 | < 10 | < 10 | < 10 | < 10 | < 10 | < 10 | < 10 | < 10 | < 10 | < 10 | < 10 | inhibition at 10 µM (NCI-H460): < 10%; inhibition at 10 µM (MALME-3M): < 10%; inhibition at 10 µM (SR): < 10%; inhibition at 10 µM (DU-145): < 10%; melting point: 181 to 183 °C; inhibition at 10 µM (SF-268): < 10%; inhibition at 10 µM (786-0): < 10%; inhibition at 10 µM (IGROV1): < 10%; inhibition at 10 µM (HCT-116): < 10%; inhibition at 10 µM (SF-295): < 10%; inhibition at 10 µM (HOP-92): < 10%; inhibition at 10 µM (LOX IMVI): < 10%; inhibition at 10 µM (K-562): < 10%
